Assay results published in ChEMBL document CHEMBL1201862, “PubChem BioAssay data set” (2004).
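Each compound was tested at five concentrations against cells in 96-well plates for 48 hours. Abbreviation: GI50, concentration required for 50% inhibition of growth.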 Calls of active or inactive are those of the source. Cut-off read from the data, not from the text of the source: active = GI50 up to about 1.1 µM and inactive = higher.

What was measured:
Assay in all cases: NCI-60 cell line screen, 48 h
CCRF-CEM = test system: CCRF-CEM
HCT-15 = test system: HCT-15
HOP-62 = test system: HOP-62
IGROV-1 = test system: IGROV-1
M14 = test system: M14
MDA-MB-231 = test system: MDA-MB-231
MDA-MB-435 = test system: MDA-MB-435
Malme-3M = test system: Malme-3M
NCI-H226 = test system: NCI-H226
NCI-H460 = test system: NCI-H460
NCI-H522 = test system: NCI-H522
OVCAR-8 = test system: OVCAR-8
RXF 393 = test system: RXF 393
SF-539 = test system: SF-539
SK-MEL-2 = test system: SK-MEL-2
SK-OV-3 = test system: SK-OV-3
SW-620 = test system: SW-620
T47D = test system: T47D
UACC-257 = test system: UACC-257
UO-31 = test system: UO-31

SMILES | GI50 (CCRF-CEM) | GI50 (HCT-15) [µM] | GI50 (HOP-62) | GI50 (IGROV-1) | GI50 (M14) | GI50 (MDA-MB-231) | GI50 (MDA-MB-435) | GI50 (Malme-3M) | GI50 (NCI-H226) | GI50 (NCI-H460) | GI50 (NCI-H522) | GI50 (OVCAR-8) | GI50 (RXF 393) | GI50 (SF-539) | GI50 (SK-MEL-2) | GI50 (SK-OV-3) | GI50 (SW-620) | GI50 (T47D) | GI50 (UACC-257) | GI50 (UO-31)
CC(=O)OCOC(=O)CN(CC(=O)OCOC(C)=O)Cc1cc2c(cc1OC(C)=O)Oc1cc(OC(C)=O)c(CN(CC(=O)OCOC(C)=O)CC(=O)OCOC(C)=O)cc1C21OC(=O)c2ccccc21 | 0.11 µM (active) | 1.66 | 1.1 µM (active) | 0.277 µM (active) | 1.16 µM (inactive) | 1.45 µM (inactive) | 0.782 µM (active) | 0.902 µM (active) | 1.34 µM (inactive) | 0.366 µM (active) | 0.237 µM (active) | 1.15 µM (inactive) | 0.34 µM (active) | 0.255 µM (active) | 0.369 µM (active) | 2.54 µM (inactive) | 0.759 µM (active) | 1.4 µM (inactive) | 0.344 µM (active) | 1.82 µM (inactive)
CO/N=[N+](\[O-])NC(C)C | > 100 µM (inactive) | > 100 | > 100 µM (inactive) | > 100 µM (inactive) | > 100 µM (inactive) | > 100 µM (inactive) | > 100 µM (inactive) | > 100 µM (inactive) | > 100 µM (inactive) | > 100 µM (inactive) | > 100 µM (inactive) | > 100 µM (inactive) | > 100 µM (inactive) | > 100 µM (inactive) | > 100 µM (inactive) | > 100 µM (inactive) | > 100 µM (inactive) | > 100 µM (inactive) | > 100 µM (inactive) | 5.42 µM (inactive)
COC1=C(Cl)C(=O)c2c(O)ccc(O)c2C1=O | 0.18 µM (active) | 1.34 | 0.873 µM (active) | 1.7 µM (inactive) | 0.541 µM (active) | 1.66 µM (inactive) | 1.28 µM (inactive) | 0.478 µM (active) | 11.2 µM (inactive) | 4.44 µM (inactive) | 0.119 µM (active) | 2 µM (inactive) | 1.3 µM (inactive) | 0.578 µM (active) | 0.499 µM (active) | 16 µM (inactive) | 0.1 µM (active) | 1.03 µM (active) | 1.77 µM (inactive) | 1.77 µM (inactive)
O=C1/C(=C\c2ccc(-c3ccc(Cl)cc3Cl)o2)SC2NC(COc3ccc(Cl)cc3)=NN12 (stereo not given) | 16 µM (inactive) | 34.9 | 80.4 µM (inactive) | 29.9 µM (inactive) | > 100 µM (inactive) | 44 µM (inactive) | 38.7 µM (inactive) | 42.2 µM (inactive) | 20.2 µM (inactive) | 38.5 µM (inactive) | 55 µM (inactive) | 38.3 µM (inactive) | 27.5 µM (inactive) | 49 µM (inactive) | 50.5 µM (inactive) | 88.3 µM (inactive) | 60.7 µM (inactive) | 27.2 µM (inactive) | 21.1 µM (inactive) | > 100 µM (inactive)
COc1ccc(/C=C/C(=O)c2cc(OC)cc(OC)c2)cc1 | 2.07 µM (inactive) | 0.543 | 3.78 µM (inactive) | 4.57 µM (inactive) | 2.45 µM (inactive) | 6.79 µM (inactive) | 1.54 µM (inactive) | 13.6 µM (inactive) | 10.2 µM (inactive) | 2.9 µM (inactive) | 2.22 µM (inactive) | 3.39 µM (inactive) | 3.33 µM (inactive) | 1.05 µM (active) | 18.7 µM (inactive) | 6.71 µM (inactive) | 0.64 µM (active) | 3.11 µM (inactive) | 13.6 µM (inactive) | 3.27 µM (inactive)
CN1CCN(CCCCN2c3ccccc3Sc3ccc(C(=O)c4ccccc4)cc32)CC1 | 1.64 µM (inactive) | 1.67 | 1.6 µM (inactive) | 1.72 µM (inactive) | 1.82 µM (inactive) | 1.9 µM (inactive) | 1.73 µM (inactive) | 2.34 µM (inactive) | 1.8 µM (inactive) | 1.54 µM (inactive) | 1.78 µM (inactive) | 1.5 µM (inactive) | 0.923 µM (active) | 1.83 µM (inactive) | 1.77 µM (inactive) | 1.57 µM (inactive) | 1.73 µM (inactive) | 5.65 µM (inactive) | 1.75 µM (inactive) | 2.65 µM (inactive)
O=c1c(S(=O)(=O)Oc2ccccc2)coc2cc(F)ccc12 | 65.3 µM (inactive) | > 100 | > 100 µM (inactive) | > 100 µM (inactive) | > 100 µM (inactive) | > 100 µM (inactive) | > 100 µM (inactive) | > 100 µM (inactive) | 17.4 µM (inactive) | > 100 µM (inactive) | > 100 µM (inactive) | > 100 µM (inactive) | 36.1 µM (inactive) | > 100 µM (inactive) | 46.8 µM (inactive) | > 100 µM (inactive) | > 100 µM (inactive) | 55 µM (inactive) | > 100 µM (inactive) | 46.8 µM (inactive)
